Source: patent US12226409B2, “Treatment of hepatocellular carcinoma” (Eisai R&D Management Co., Ltd., priority 2017, dated 2025)

How the values were obtained:
[1] = Phase 1 study of lenvatinib in HCC, plasma concentration; format: in vivo, human; conditions: HCC patients 12 mg per day vs solid tumor patients 25 mg per day
CYP1A2 = molecular target: T1, CYP1A2 (Homo sapiens, UniProt P05177); assay: In vitro CYP inhibition; format: in vitro ADME
T1 sequence (P05177 1-516): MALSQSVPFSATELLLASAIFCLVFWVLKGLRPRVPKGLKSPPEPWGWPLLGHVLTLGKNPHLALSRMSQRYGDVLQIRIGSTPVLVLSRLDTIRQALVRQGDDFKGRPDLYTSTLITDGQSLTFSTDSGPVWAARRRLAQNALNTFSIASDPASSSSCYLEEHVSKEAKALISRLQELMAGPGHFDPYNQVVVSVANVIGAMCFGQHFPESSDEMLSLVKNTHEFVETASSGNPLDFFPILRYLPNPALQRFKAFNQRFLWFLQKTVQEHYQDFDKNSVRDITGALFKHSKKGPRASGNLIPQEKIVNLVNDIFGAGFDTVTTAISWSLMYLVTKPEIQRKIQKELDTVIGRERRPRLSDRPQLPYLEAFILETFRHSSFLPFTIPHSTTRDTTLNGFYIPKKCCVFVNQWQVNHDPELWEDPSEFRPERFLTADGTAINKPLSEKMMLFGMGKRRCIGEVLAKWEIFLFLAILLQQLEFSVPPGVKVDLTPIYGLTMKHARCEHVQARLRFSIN

CYP2C9 = CYP2C9 (Homo sapiens, UniProt P11712); assay: In vitro CYP inhibition; format: in vitro ADME
CYP3A [2] = assay: In vitro CYP induction; format: in vitro ADME
[3] = test system: unresectable hepatocellular carcinoma (HCC); assay: REFLECT study, efficacy per independent review; format: in vivo, human
Protocol: The efficacy of LENVIMA was evaluated in a randomized, open-label, multicenter, international study (REFLECT; […]) conducted in patients with previously untreated unresectable hepatocellular carcinoma (HCC).

unresectable HCC = assay: Open-label phase 3 noninferiority study, efficacy (tumor assessment by mRECIST); format: in vivo, human
Source text: (§1) The primary endpoint was overall survival.
Patients who were eligible for enrollment had unresectable HCC with diagnosis confirmed histologically or cytologically or with diagnosis confirmed clinically in accordance with the American Association for the Study of Liver Diseases criteria. Included patients also had ≥1 measureable target lesion, based on modified Response Evaluation Criteria in Solid Tumors (Lencioni 2010); Barcelona Clinic Liver Cancer stage B or C categorization (Bruix Hepatology 2011); Child-Pugh class A; and Eastern Cooperative Oncology Group performance status ≤1. All eligible patients had controlled blood pressure (≤150/90 mm Hg), and adequate organ function. Patients with ≥50% liver occupation, clear bile duct invasion, or portal vein invasion at the main portal vein were excluded. Patients also were excluded if that had received prior systemic therapy for HCC.
(§2) Tumors were evaluated in accordance with mRECIST (Lencioni R., Semin Liver Dis., 30(1):52-60, 2010); RECIST 1.1 was applied for nonhepatic lesions (Eisenhauer, Eur J Cancer, 45(2):228-47, 2009). The liver was examined with computed tomography or magnetic resonance imaging was performed using a triphasic scanning technique. Assessments were performed every 8 weeks until disease progression. Quality of life questionnaires were administered at baseline, on day 1 of each subsequent treatment cycle, and at the off-treatment visit.
The primary endpoint of overall survival was first tested for noninferiority then for superiority. The required number of events for the primary analysis was 700 deaths, based on the fill analysis set. The HR and its 95% confidence interval (CI) were estimated from a Cox proportional hazard model with treatment group as a factor and with the analysis stratified according to the same factors applied for randomization.
A fixed-sequence procedure was followed to control the overall type I error rate of analyses for both the primary and secondary efficacy endpoints at α=0.05 (2-sided). After noninferiority was declared, secondary efficacy endpoints were tested. Differences in progression-free survival and time to progression were evaluated using a stratified log-rank test with randomization stratification factors, with the associated HR and its 95% CI. A difference in the objective response rate was evaluated using the Cochran-Mantel-Haenszel chi-square test with randomized stratification factors as strata, with associated odds ratio and its 95% CI. To assess futility, 2 interim analyses (at 30% and 70% of the target number of events) were performed using Bayesian predictive probability in a noninferiority design by the independent data monitoring committee.

CYP3A [4] = assay: In vitro CYP inhibition; format: in vitro ADME
[5] = test system: patients with unresectable HCC; conditions: human, in vivo
Source text: Randomization was stratified according to region (Asia-Pacific or Western regions), macroscopic portal vein invasion and/or extrahepatic spread (yes or no), Eastern Cooperative Oncology Group performance status (0 or 1), and body weight (<60 kg or ≥60 kg).
Safety assessments included recording of vital signs, hematologic and biochemical laboratory testing, urinalysis, and electrocardiography.

[6] = test system: patients with unresectable HCC; assay: Quality of life, EORTC QLQ-C30 and QLQ-HCC18 questionnaires; format: in vivo, human; conditions: role functioning, pain, diarrhea (QLQ-C30); nutrition, body image (QLQ-HCC18)
Protocol: as §1, §2

[7] = test system: lenvatinib-treated subjects; assay: Clinical studies with lenvatinib, posterior reversible encephalopathy syndrome; conditions: human, in vivo
Source text: Mild to severe hypertension also could be present. A magnetic resonance imaging (MRI) was necessary to confirm the diagnosis of PRES. In subjects with signs or symptoms of PRES, appropriate measures were to be taken to control blood pressure, and instructions in Table 6 were followed.

CYP3A4 = molecular target: T2, CYP3A4 (Homo sapiens, UniProt P08684); assay: Drug interaction with midazolam (CYP3A4 substrate); conditions: projected
T2 construct: from tissue; host or cells: human subjects (in vivo)

CYP2D6 = CYP2D6 (Homo sapiens, UniProt P10635); assay: In vitro CYP inhibition; format: in vitro ADME
CYP2D6, sequence (P10635 whole entry): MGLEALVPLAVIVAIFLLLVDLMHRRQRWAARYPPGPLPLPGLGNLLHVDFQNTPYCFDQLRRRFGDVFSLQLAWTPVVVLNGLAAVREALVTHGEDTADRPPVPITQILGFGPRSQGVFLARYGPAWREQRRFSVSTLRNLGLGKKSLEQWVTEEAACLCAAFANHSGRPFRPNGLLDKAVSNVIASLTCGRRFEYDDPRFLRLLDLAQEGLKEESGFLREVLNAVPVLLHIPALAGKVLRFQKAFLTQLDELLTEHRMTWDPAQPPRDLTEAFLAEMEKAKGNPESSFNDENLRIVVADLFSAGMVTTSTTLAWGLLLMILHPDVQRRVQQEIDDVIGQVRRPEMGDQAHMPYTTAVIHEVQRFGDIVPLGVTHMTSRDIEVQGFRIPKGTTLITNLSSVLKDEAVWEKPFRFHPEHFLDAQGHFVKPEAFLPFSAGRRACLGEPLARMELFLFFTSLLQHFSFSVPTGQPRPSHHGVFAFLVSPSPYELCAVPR

T2 sequence (P08684 whole entry): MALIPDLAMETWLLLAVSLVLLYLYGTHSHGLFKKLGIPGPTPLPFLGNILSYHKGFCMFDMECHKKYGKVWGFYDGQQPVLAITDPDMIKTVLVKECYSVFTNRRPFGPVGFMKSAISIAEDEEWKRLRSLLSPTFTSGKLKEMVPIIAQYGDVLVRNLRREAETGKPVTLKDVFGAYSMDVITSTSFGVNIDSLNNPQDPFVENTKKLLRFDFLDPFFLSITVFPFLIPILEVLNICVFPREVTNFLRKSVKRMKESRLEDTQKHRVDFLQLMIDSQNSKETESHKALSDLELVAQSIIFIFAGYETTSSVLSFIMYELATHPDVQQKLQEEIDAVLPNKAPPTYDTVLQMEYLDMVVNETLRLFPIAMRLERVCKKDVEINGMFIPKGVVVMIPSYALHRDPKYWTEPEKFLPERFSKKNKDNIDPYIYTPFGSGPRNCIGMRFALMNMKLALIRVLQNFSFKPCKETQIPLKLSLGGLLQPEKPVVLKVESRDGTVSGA
CYP2C9, sequence (P11712 whole entry): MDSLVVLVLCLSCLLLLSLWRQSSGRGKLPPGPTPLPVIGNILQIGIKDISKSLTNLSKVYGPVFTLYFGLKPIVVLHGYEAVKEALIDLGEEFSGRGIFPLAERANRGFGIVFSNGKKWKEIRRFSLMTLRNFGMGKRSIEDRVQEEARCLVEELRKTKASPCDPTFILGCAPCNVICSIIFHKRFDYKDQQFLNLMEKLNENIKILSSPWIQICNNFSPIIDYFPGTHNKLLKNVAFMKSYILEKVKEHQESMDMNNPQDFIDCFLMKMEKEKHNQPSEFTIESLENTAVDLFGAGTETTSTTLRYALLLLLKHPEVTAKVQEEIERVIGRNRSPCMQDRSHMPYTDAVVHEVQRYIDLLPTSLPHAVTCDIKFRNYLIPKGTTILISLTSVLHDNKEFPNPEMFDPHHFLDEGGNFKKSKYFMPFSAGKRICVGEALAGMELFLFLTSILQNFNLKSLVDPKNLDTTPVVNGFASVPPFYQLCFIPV

With `COc1cc2nccc(Oc3ccc(NC(=O)NC4CC4)c(Cl)c3)c2cc1C(N)=O` [Lenvatinib, 4-(3-chloro-4(cyclopropylaminocarbonyl)aminophenoxy)-7-methoxy-6-quinolinecarboxamide] the “lenvatinib plasma concentration at 24 hours” value [1] was “similar”, the “inhibition of CYP1A2” value (CYP1A2) was “inhibits” and the “inhibition of CYP2C9” value (CYP2C9) was “inhibits”. The “induction of CYP3A” value (CYP3A [2]) was “induces”, the “Median OS” value ([3]; in vivo) was 13.6 months and the “Median PFS” value ([3]; mRECIST, independent review) was 7.3 months. For the same compound, the Objective response rate ([3]; mRECIST, independent review) was 41%, the “Primary reason for discontinuation of treatment: Disease Progression” value (unresectable HCC; Full Analysis Set) was 311 (65.1) n (%) and the “Durable stable disease lasting ≥23 wk” value (unresectable HCC; in vivo) was 167 no. For the same compound, the Median overall survival (unresectable HCC; in vivo) was 13.6 mo, the Median progression-free survival (unresectable HCC; mRECIST) was 7.4 mo and the “Median time to progression” value (unresectable HCC; mRECIST) was 8.9 mo. The “inhibition of CYP3A” value (CYP3A [4]) was “inhibits”, the “treatment-related fatal cerebral hemorrhage” value [5] was 3 patients and the “treatment-related fatal hepatic failure” value [5] was 3 patients. For the same compound, the “treatment-related fatal respiratory failure” value [5] was 2 patients, the “time to clinically meaningful deterioration of quality of life” value [6] was “clinically meaningful delay in deterioration” and the “events of posterior reversible encephalopathy syndrome (PRES)” value [7] was “less than 1%”. For the same compound, the “drug-drug interaction risk with midazolam” value (CYP3A4) was “no projected significant drug-drug interaction risk” and the “inhibition of CYP2D6” value (CYP2D6) was “inhibits”.
